From patent US20210045385A1, “PYRIDAZINONE-SUBSTITUTED KETOXIMES AS HERBICIDES” (FMC Corporation, priority 2018, published 2021)

Columns and labels:
Type in all cases: in vivo
[1] = test system: pigweed (Amaranthus retroflexus); experiment: Test C preemergence, visual plant response rating; conditions: 1000 g ai/ha
Text: (§1) Seeds of plant species selected from barnyardgrass (Echinochloa crus-galli), kochia (Bassia scoparia), ragweed (common ragweed, Ambrosia artemisiifolia), Italian ryegrass (Lolium mutiflorum), foxtail, giant (giant foxtail, Setaria faberi), foxtail, green (green foxtail, Setaria viridis), and pigweed (Amaranthus retroflexus) were planted into a blend of loam soil and sand and treated preemergence with a directed soil spray using test chemicals formulated in anon-phytotoxic solvent mixture which included a surfactant.
(§2) At the same time, plants selected from these weed species and also wheat (Triticum aestivum), corn (Zea mays), blackgrass (Alopecurus myosuroides), and galium (catchweed bedstraw, Galium aparine) were planted in pots containing the same blend of loam soil and sand and treated with post emergence applications of test chemicals formulated in the same manner. Plants ranged in height from 2 to 10 cm and were in the one- to two-leaf stage for the postemergence treatment. Treated plants and untreated controls were maintained in a greenhouse for approximately 10 d, after which time all treated plants were compared to untreated controls and visually evaluated for injury. Plant response ratings, summarized in Table C, are based on a 0 to 100 scale where 0 is no effect and 100 is complete control. A dash (-)response means no test result.

[2] = test system: foxtail, giant (giant foxtail, Setaria faberi); experiment: Test C preemergence, visual plant response rating; conditions: 1000 g ai/ha
Text: as §1, §2

[3] = test system: kochia (Bassia scoparia); experiment: Test C preemergence, visual plant response rating; conditions: 1000 g ai/ha
Text: as §1, §2

[4] = test system: barnyardgrass (Echinochloa crus-galli); experiment: Test C preemergence, visual plant response rating; conditions: 1000 g ai/ha
Text: as §1, §2

[5] = test system: ragweed (common ragweed, Ambrosia artemisiifolia); experiment: Test C preemergence, visual plant response rating; conditions: 1000 g ai/ha
Text: as §1, §2

[6] = test system: Italian ryegrass (Lolium mutiflorum); experiment: Test C preemergence, visual plant response rating; conditions: 1000 g ai/ha
Text: as §1, §2

[7] = test system: wheat (Triticum aestivum); experiment: Test C postemergence, visual plant response rating; conditions: Test C, postemergence, 1000 g ai/ha
Text: as §1, §2

[8] = test system: corn (Zea mays); experiment: Test C postemergence, visual plant response rating; conditions: Test C, postemergence, 1000 g ai/ha
Text: as §1, §2

[9] = test system: pigweed (Amaranthus retroflexus); experiment: Test C postemergence, visual plant response rating; conditions: Test C, postemergence, 1000 g ai/ha
Text: as §1, §2

[10] = test system: foxtail, giant (giant foxtail, Setaria faberi); experiment: Test C postemergence, visual plant response rating; conditions: Test C, postemergence, 1000 g ai/ha
Text: as §1, §2

[11] = test system: galium (catchweed bedstraw, Galium aparine); experiment: Test C postemergence, visual plant response rating; conditions: Test C, postemergence, 1000 g ai/ha
Text: as §1, §2

[12] = test system: kochia (Bassia scoparia); experiment: Test C postemergence, visual plant response rating; conditions: Test C, postemergence, 1000 g ai/ha
Text: as §1, §2

[13] = test system: barnyardgrass (Echinochloa crus-galli); experiment: Test C postemergence, visual plant response rating; conditions: Test C, postemergence, 1000 g ai/ha
Text: as §1, §2

[14] = test system: blackgrass (Alopecurus myosuroides); experiment: Test C postemergence, visual plant response rating; conditions: Test C, postemergence, 1000 g ai/ha
Text: as §1, §2

[15] = test system: ragweed (common ragweed, Ambrosia artemisiifolia); experiment: Test C postemergence, visual plant response rating; conditions: Test C, postemergence, 1000 g ai/ha
Text: as §1, §2

[16] = test system: Italian ryegrass (Lolium mutiflorum); experiment: Test C postemergence, visual plant response rating; conditions: Test C, postemergence, 1000 g ai/ha
Text: as §1, §2

[17] = test system: wheat (Triticum aestivum); experiment: Test A postemergence, visual plant response rating; conditions: Postemergence, 125 g ai/ha; 0 to 100 scale (0 no effect, 100 complete control)
Text: as §1, with “(Kochia” for “(Bassia”, “elatior),” for “artemisiifolia),”, “multiflorum),” for “mutiflorum),”, “faberii),” for “faberi),”, “a non-phytotoxic” for “anon-phytotoxic”
as §2, with “postemergence” for “post emergence”, “days,” for “d,”, “A,” for “C,”, “(-) response” for “(-)response”

[18] = test system: corn (Zea mays); experiment: Test A postemergence, visual plant response rating; conditions: Postemergence, 125 g ai/ha; 0 to 100 scale (0 no effect, 100 complete control)
Text: as §1, with “(Kochia” for “(Bassia”, “elatior),” for “artemisiifolia),”, “multiflorum),” for “mutiflorum),”, “faberii),” for “faberi),”, “a non-phytotoxic” for “anon-phytotoxic”
as §2, with “postemergence” for “post emergence”, “days,” for “d,”, “A,” for “C,”, “(-) response” for “(-)response”

[19] = test system: pigweed (Amaranthus retroflexus); experiment: Test A postemergence, visual plant response rating; conditions: Postemergence, 125 g ai/ha; 0 to 100 scale (0 no effect, 100 complete control)
Text: as §1, with “(Kochia” for “(Bassia”, “elatior),” for “artemisiifolia),”, “multiflorum),” for “mutiflorum),”, “faberii),” for “faberi),”, “a non-phytotoxic” for “anon-phytotoxic”
as §2, with “postemergence” for “post emergence”, “days,” for “d,”, “A,” for “C,”, “(-) response” for “(-)response”

[20] = test system: galium (catchweed bedstraw, Galium aparine); experiment: Test A postemergence, visual plant response rating; conditions: Postemergence, 125 g ai/ha; 0 to 100 scale (0 no effect, 100 complete control)
Text: as §1, with “(Kochia” for “(Bassia”, “elatior),” for “artemisiifolia),”, “multiflorum),” for “mutiflorum),”, “faberii),” for “faberi),”, “a non-phytotoxic” for “anon-phytotoxic”
as §2, with “postemergence” for “post emergence”, “days,” for “d,”, “A,” for “C,”, “(-) response” for “(-)response”

[21] = test system: barnyardgrass (Echinochloa crus-galli); experiment: Test A postemergence, visual plant response rating; conditions: Postemergence, 125 g ai/ha; 0 to 100 scale (0 no effect, 100 complete control)
Text: as §1, with “(Kochia” for “(Bassia”, “elatior),” for “artemisiifolia),”, “multiflorum),” for “mutiflorum),”, “faberii),” for “faberi),”, “a non-phytotoxic” for “anon-phytotoxic”
as §2, with “postemergence” for “post emergence”, “days,” for “d,”, “A,” for “C,”, “(-) response” for “(-)response”

[22] = test system: blackgrass (Alopecurus myosuroides); experiment: Test A postemergence, visual plant response rating; conditions: Postemergence, 125 g ai/ha; 0 to 100 scale (0 no effect, 100 complete control)
Text: as §1, with “(Kochia” for “(Bassia”, “elatior),” for “artemisiifolia),”, “multiflorum),” for “mutiflorum),”, “faberii),” for “faberi),”, “a non-phytotoxic” for “anon-phytotoxic”
as §2, with “postemergence” for “post emergence”, “days,” for “d,”, “A,” for “C,”, “(-) response” for “(-)response”

[23] = test system: foxtail, giant (giant foxtail, Setaria faberii); experiment: Test A postemergence, visual plant response rating; conditions: Postemergence, 125 g ai/ha; 0 to 100 scale (0 no effect, 100 complete control)
Text: as §1, with “(Kochia” for “(Bassia”, “elatior),” for “artemisiifolia),”, “multiflorum),” for “mutiflorum),”, “faberii),” for “faberi),”, “a non-phytotoxic” for “anon-phytotoxic”
as §2, with “postemergence” for “post emergence”, “days,” for “d,”, “A,” for “C,”, “(-) response” for “(-)response”

[24] = test system: ragweed (common ragweed, Ambrosia elatior); experiment: Test A postemergence, visual plant response rating; conditions: Postemergence, 125 g ai/ha; 0 to 100 scale (0 no effect, 100 complete control)
Text: as §1, with “(Kochia” for “(Bassia”, “elatior),” for “artemisiifolia),”, “multiflorum),” for “mutiflorum),”, “faberii),” for “faberi),”, “a non-phytotoxic” for “anon-phytotoxic”
as §2, with “postemergence” for “post emergence”, “days,” for “d,”, “A,” for “C,”, “(-) response” for “(-)response”

[25] = test system: Italian ryegrass (Lolium multiflorum); experiment: Test A postemergence, visual plant response rating; conditions: Postemergence, 125 g ai/ha; 0 to 100 scale (0 no effect, 100 complete control)
Text: as §1, with “(Kochia” for “(Bassia”, “elatior),” for “artemisiifolia),”, “multiflorum),” for “mutiflorum),”, “faberii),” for “faberi),”, “a non-phytotoxic” for “anon-phytotoxic”
as §2, with “postemergence” for “post emergence”, “days,” for “d,”, “A,” for “C,”, “(-) response” for “(-)response”

[26] = test system: kochia (Kochia scoparia); experiment: Test A postemergence, visual plant response rating; conditions: Postemergence, 125 g ai/ha; 0 to 100 scale (0 no effect, 100 complete control)
Text: as §1, with “(Kochia” for “(Bassia”, “elatior),” for “artemisiifolia),”, “multiflorum),” for “mutiflorum),”, “faberii),” for “faberi),”, “a non-phytotoxic” for “anon-phytotoxic”
as §2, with “postemergence” for “post emergence”, “days,” for “d,”, “A,” for “C,”, “(-) response” for “(-)response”

[27] = test system: pigweed (Amaranthus retroflexus); experiment: Test A preemergence, visual plant response rating; conditions: 125 g ai/ha, preemergence; 0 to 100 scale, 0 no effect, 100 complete control
Text: as §1, with “(Kochia” for “(Bassia”, “elatior),” for “artemisiifolia),”, “multiflorum),” for “mutiflorum),”, “faberii),” for “faberi),”, “a non-phytotoxic” for “anon-phytotoxic”
as §2, with “postemergence” for “post emergence”, “days,” for “d,”, “A,” for “C,”, “(-) response” for “(-)response”

[28] = test system: barnyardgrass (Echinochloa crus-galli); experiment: Test A preemergence, visual plant response rating; conditions: 125 g ai/ha, preemergence; 0 to 100 scale, 0 no effect, 100 complete control
Text: as §1, with “(Kochia” for “(Bassia”, “elatior),” for “artemisiifolia),”, “multiflorum),” for “mutiflorum),”, “faberii),” for “faberi),”, “a non-phytotoxic” for “anon-phytotoxic”
as §2, with “postemergence” for “post emergence”, “days,” for “d,”, “A,” for “C,”, “(-) response” for “(-)response”

[29] = test system: foxtail, giant (giant foxtail, Setaria faberii); experiment: Test A preemergence, visual plant response rating; conditions: 125 g ai/ha, preemergence; 0 to 100 scale, 0 no effect, 100 complete control
Text: as §1, with “(Kochia” for “(Bassia”, “elatior),” for “artemisiifolia),”, “multiflorum),” for “mutiflorum),”, “faberii),” for “faberi),”, “a non-phytotoxic” for “anon-phytotoxic”
as §2, with “postemergence” for “post emergence”, “days,” for “d,”, “A,” for “C,”, “(-) response” for “(-)response”

[30] = test system: ragweed (common ragweed, Ambrosia elatior); experiment: Test A preemergence, visual plant response rating; conditions: 125 g ai/ha, preemergence; 0 to 100 scale, 0 no effect, 100 complete control
Text: as §1, with “(Kochia” for “(Bassia”, “elatior),” for “artemisiifolia),”, “multiflorum),” for “mutiflorum),”, “faberii),” for “faberi),”, “a non-phytotoxic” for “anon-phytotoxic”
as §2, with “postemergence” for “post emergence”, “days,” for “d,”, “A,” for “C,”, “(-) response” for “(-)response”

[31] = test system: Italian ryegrass (Lolium multiflorum); experiment: Test A preemergence, visual plant response rating; conditions: 125 g ai/ha, preemergence; 0 to 100 scale, 0 no effect, 100 complete control
Text: as §1, with “(Kochia” for “(Bassia”, “elatior),” for “artemisiifolia),”, “multiflorum),” for “mutiflorum),”, “faberii),” for “faberi),”, “a non-phytotoxic” for “anon-phytotoxic”
as §2, with “postemergence” for “post emergence”, “days,” for “d,”, “A,” for “C,”, “(-) response” for “(-)response”

[32] = test system: kochia (Kochia scoparia); experiment: Test A preemergence, visual plant response rating; conditions: 125 g ai/ha, preemergence; 0 to 100 scale, 0 no effect, 100 complete control
Text: as §1, with “(Kochia” for “(Bassia”, “elatior),” for “artemisiifolia),”, “multiflorum),” for “mutiflorum),”, “faberii),” for “faberi),”, “a non-phytotoxic” for “anon-phytotoxic”
as §2, with “postemergence” for “post emergence”, “days,” for “d,”, “A,” for “C,”, “(-) response” for “(-)response”

Compound | Pigweed plant response rating (0 to 100 scale) [1] | Foxtail, Giant plant response rating (0 to 100 scale) [2] | Kochia plant response rating (0 to 100 scale) [3] | Barnyardgrass plant response rating (0 to 100 scale) [4] | Ragweed plant response rating (0 to 100 scale) [5] | Ryegrass, Italian plant response rating (0 to 100 scale) [6] | Wheat plant response rating (0 to 100 scale) [7] | Corn plant response rating (0 to 100 scale) [8] | Pigweed plant response rating (0 to 100 scale) [9] | Foxtail, Giant plant response rating (0 to 100 scale) [10] | Galium plant response rating (0 to 100 scale) [11] | Kochia plant response rating (0 to 100 scale) [12] | Barnyardgrass plant response rating (0 to 100 scale) [13] | Blackgrass plant response rating (0 to 100 scale) [14] | Ragweed plant response rating (0 to 100 scale) [15] | Ryegrass, Italian plant response rating (0 to 100 scale) [16] | other results
CO/N=C(\c1c(O)cnn(C)c1=O)c1cccc2ccccc12 [Compound 238] | 100 | 40 | 30 | 0 | 90 | 20 | 0 | 0 | 90 | 40 | 90 | 80 | 20 | 20 | 30 | 0 | –
CCO/N=C(\c1c(O)cnn(C)c1=O)c1cccc2ccccc12 [Compound 224] | 100 | 80 | 20 | 10 | 70 | 0 | 0 | 0 | 50 | 50 | 90 | 0 | 10 | 10 | 50 | 0 | –
CO/N=C(\c1cc(C(F)(F)F)ccc1Cl)c1c(O)c(C)nn(C)c1=O [Compound 54] | – | – | – | – | – | – | – | – | – | – | – | – | – | – | – | – | Wheat plant response rating [17]: 30; Corn plant response rating [18]: 10; Pigweed plant response rating [19]: 60; Galium plant response rating [20]: 70; Barnyardgrass plant response rating [21]: 30; Blackgrass plant response rating [22]: 40; Foxtail, Giant plant response rating [23]: 40; Ragweed plant response rating [24]: 60; Ryegrass, Italian plant response rating [25]: 40; Kochia plant response rating [26]: 50; Pigweed plant response rating [27]: 80; Barnyardgrass plant response rating [28]: 40; Foxtail, Giant plant response rating [29]: 40; Ragweed plant response rating [30]: 70; Ryegrass, Italian plant response rating [31]: 70; Kochia plant response rating [32]: 0
